Experimental data from US20130177546A1, “METHOD FOR ENHANCING EFFICACY AND SELECTIVITY OF CANCER CELL KILLING BY DNA DAMAGING AGENTS” (MAINE INSTITUTE FOR HUMAN GENETICS AND HEALTH, priority 2011, published 2013).

Columns and labels:
Assay type in all cases: cell-based
p21^WAF1/CIP1 = experiment: p21 expression in Dox-treated MCF7 cells (SDS-PAGE, immunoblot); settings: MCF7 cells following Dox treatment
Protocol: The results from this example are shown in FIG. 2. a, Doxorubicin (Dox) promotes PCNA methyl esterification in MCF7 cells. Whole cell extracts (WCE) from cultures treated with Dox ([…]) were resolved by 2D-PAGE followed by PCNA immunoblotting (IB). The basic-shifted PCNA isoform (ME-PCNA) is identified with an arrow. b, PCNA-dependent methyltransferase activity is altered following Dox treatment. Dox treated MCF7 WCE were assayed for PCNA-dependent activity in triplicate using the vapour diffusion assay, and average activities are presented ±S.E.M. Significance was determined using a two-tailed t-test. c, Dox induces p21 expression in MCF7 cells. Extracts were separated by SDS-PAGE and immunoblotted for p21^Waf1/Cip1. d, p21 binding promotes PCNA methyl esterification. Untreated MCF7 extracts were incubated with GST, GST-p21 (full-length), and GST-p21(PIP) proteins bound to glutathione Sepharose for 2 h at 4° C. prior to 2D-PAGE and PCNA immunoblotting. e The p21-induced basic shift is a result of PCNA methyl esterification. p21(PIP) peptide was covalently coupled to CH-Sepharose and used to affinity purify PCNA from MCF7 whole cell extracts. Purified fractions were separated by 2D-PAGE and stained with colloidal Coomassie blue. Spots were excised from the gel, digested with trypsin, and analyzed by LC-MS/MS. […]

[1] = tested on: SK-Br-3 (p53-mutant) cells; experiment: Clonogenic survival assay after DNA damage, SK-Br-3 cells expressing Arm1 or control shRNA; settings: for survival: 0.5 mM DOX; for cells surviving: 0.0025% MMS
Protocol: (§1) MCF7 and SK-Br-3 cells were obtained from ATCC and maintained in DMEM or McCoys 5A supplemented with 10% FBS and antibiotics at 37° C., 5% CO2. A human Flag-tagged Arm1, Rev1, and p21 expression construct (Origene) were transiently transfected into SK-Br-3 cells with Fugene 6 (Roche) and extracts generated after 24 h. Lentiviral shRNA particles were obtained from Open Biosystems and stably expressing clones selected with puromycin and confirmed by GFP expression and Q-PCR (FIG. 10). […] Surviving colonies were stained with methylene blue and counted 2 weeks after treatments.
(§2) The results from this example are shown in FIG. 3. a, Arm1 promotes PCNA methyl esterification following DNA damage. PCNA was analyzed by 2D-PAGE immunoblotting in SK-Br-3 and MCF7 cells expressing Arm1 or non-targeting (control) shRNA in the absence of DNA damage or 4 h following Dox treatment or UV irradiation. b, PCNA-dependent methyltransferase activities are alter in shRNA expressing SK-Br-3 and MCF7 cells. WCE were assayed for PCNA-dependent carboxyl methyltransferase activity in the presence of His-PCNA ([…]) and average activities shown (±S.E.M.). Significance was determined using a two-tailed t-test. c, DNA damage sensitivity in Arm1 knockdown cells is related to p53 status. MCF7 (p53 wild-type) and SK-Br-3 (p53-mutant) cells were exposed to increasing levels of Dox and UV and survival determined by clonogenic survival. Average results from three independent experiments are presented ±SD. d, Arm1 knockdown promotes DNA repair. DNA repair rates were determined in shRNA expressing SK-Br-3 and MCF7 cells using host cell reactivation assay. Cells were transfected with UV-irradiated reporter plasmids and average repair rates were determined after 24 h. Average results from independent experiments are presented (±S.E.M.). Significance was determined with a two-tailed t-test.
In addition to PCNA modification in knock-down cells, we examined cell survival following DNA damage (FIG. 4b). […] In MCF7 cells with knocked-down Arm1 expression 47% of cells survived 0.5 mM DOX compared to 15% survival in the control cells (FIG. 4b). Similar results were consistently observed in response to UV with 39% of the Arm1 knock-down cells surviving 25 J/m^2 compared to 19% in the control. […] Additionally, because ˜50% of tumours harbour p53 mutations and knock-down of Arm1 expression in p53-mutant breast tumours appeared to sensitize the cells to DNA damage, inhibition of Arm1 may ultimately allow us to more effectively target tumour cells.

[2] = tested on: MCF7 (p53 wild-type) cells; experiment: Clonogenic survival assay after DNA damage, MCF7 cells expressing Arm1 or control shRNA
Protocol: as §1, §2
In addition to PCNA modification in knock-down cells, we examined cell survival following DNA damage (FIG. 4b). […]

SMILES	increased expression of p21^WAF1/CIP1 (p21^WAF1/CIP1) [fold]	survival ([1]; SK-Br-3 cells with knock-down of Arm1 expression) [%]	survival ([1]; SK-Br-3 control cells) [%]	cells survived ([2]; MCF7 cells with knocked-down Arm1 expression, 0.5 mM DOX) [%]	survival ([2]; MCF7 control cells, 0.5 mM DOX) [%]	cells surviving ([1]; SK-Br-3 Arm1 knock-down cells) [%]	cells surviving ([1]; SK-Br-3 control cells) [%]	survival of Arm1 knock-down cells compared to control cells ([2]; MCF7 Arm1 knock-down cells, response to MMS)
COc1cccc2c1C(=O)c1c(O)c3c(c(O)c1C2=O)C[C@@](O)(C(=O)CO)C[C@@H]3O[C@H]1C[C@H](N)[C@H](O)[C@H](C)O1 [DOX, doxorubicin]	> 27	3	18	47	15	–	–	–
COS(C)(=O)=O [MMS]	–	–	–	–	–	4	12	enhanced survival
